Data taken from patent US20260325533A1, “CDK INHIBITOR COMPOUNDS” (ALEKSIA THERAPEUTICS, INC., priority 2023, published 2026).
pIC50: −log10 of the molar value. Where two headings read alike, the source gives them in different places.

Tests used:
Assay type in all cases: biochemical
CDK6/CCND1 = CDK6/CCND1 (Homo sapiens, UniProt Q00534); assay: CDK6 homogeneous time-resolved fluorescence (HTRF) kinase assay; settings: CDK6/CCND, 1 mM ATP
Outline: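 Enzyme pre-incubated 20 min at 23 °C with compound, then reacted 60 min at 23 °C with 1 mM ATP and 50 nM ULight-4E-BP1 (Thr37/46) peptide; 1 nM enzyme, 1% DMSO. EDTA-stopped, Eu-anti-phospho antibody TR-FRET read (665 nm or 665/615 ratio); 11-point half-log titration from 10 μM gave IC50.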

CDK2/CCNE1 = CDK2/CCNE1 (Homo sapiens, UniProt P24941); assay: CDK2 homogeneous time-resolved fluorescence (HTRF) kinase assay; settings: CDK2/CCNE
Outline: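 3 nM CDK2/CCNE1 was preincubated with compound for 20 min at 23 °C in HEPES buffer (pH not stated), then reacted 60 min with 1 mM ATP and 50 nM ULight-4E-BP1 (Thr37/46) peptide. After EDTA stop, Eu-anti-phospho-4E-BP1 antibody (2 nM) was added for 60 min and TR-FRET read at 665 nm.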

CDK1/CCNB1 = CDK1/CCNB1 (Homo sapiens, UniProt P06493); assay: CDK1 homogeneous time-resolved fluorescence (HTRF) kinase assay; settings: CDK1/CCNB
Outline: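 Compounds, titrated 11 points in half-log steps typically from 10 μM, were incubated with enzyme for 20 min before ATP (1 mM) and ULight-labelled eIF4E-binding protein 1 peptide (50 nM) started a 60-min reaction at 23 °C. Phosphopeptide was detected by europium-antibody TR-FRET and IC50 values were derived.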

CDK4/CCND3 = CDK4/CCND3 (Homo sapiens, UniProt P11802); assay: CDK4 homogeneous time-resolved fluorescence (HTRF) kinase assay; settings: CDK4/CCND
Outline: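 Steps: compound plus 1.5 nM CDK4/CCND3, 20 min, 23 °C; add 1 mM ATP and 50 nM ULight-4E-BP1 (Thr37/46) peptide, 60 min; stop with 10 mM EDTA; add 2 nM Eu anti-phospho antibody, 60 min; read 665 nm. IC50 from 11-point half-log series starting 10 μM.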

[1] = >250 nM, read-out: CDK6/CCND IC50, >250 nM
[2] = 25-250 nM, read-out: CDK2/CCNE IC50, 25-250 nM
[3] = >250 nM, read-out: CDK1/CCNB IC50 >250 nM
[4] = >250 nM, read-out: CDK4/CCND IC50, >250 nM
[5] = 25-250 nM, read-out: CDK6/CCND IC50, 25-250 nM
[6] = <25 nM, read-out: CDK2/CCNE IC50, <25 nM
[7] = 25-250 nM, read-out: CDK4/CCND IC50, 25-250 nM
[8] = 25-250 nM, read-out: CDK1/CCNB IC50, 25-250 nM

Chain of CDK4/CCND3 (P11802 whole entry): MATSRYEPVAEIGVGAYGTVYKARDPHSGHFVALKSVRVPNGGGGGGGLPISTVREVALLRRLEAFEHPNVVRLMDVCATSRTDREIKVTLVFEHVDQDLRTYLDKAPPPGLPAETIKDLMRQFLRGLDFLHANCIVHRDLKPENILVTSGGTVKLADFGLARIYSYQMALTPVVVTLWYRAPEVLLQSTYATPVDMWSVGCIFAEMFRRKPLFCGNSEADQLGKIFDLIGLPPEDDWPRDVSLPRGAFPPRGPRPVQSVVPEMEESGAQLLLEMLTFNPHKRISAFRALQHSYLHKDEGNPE
Chain of CDK4/CCND3 (P30281 whole entry partner): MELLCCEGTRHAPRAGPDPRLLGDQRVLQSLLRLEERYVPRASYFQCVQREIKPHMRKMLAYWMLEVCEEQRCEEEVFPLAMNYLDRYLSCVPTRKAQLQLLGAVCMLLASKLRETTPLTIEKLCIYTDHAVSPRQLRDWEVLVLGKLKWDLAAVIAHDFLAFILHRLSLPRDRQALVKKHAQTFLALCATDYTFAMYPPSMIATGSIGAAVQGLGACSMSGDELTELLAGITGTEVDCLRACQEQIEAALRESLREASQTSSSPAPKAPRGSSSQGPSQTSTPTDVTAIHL
Chain of CDK1/CCNB1 (P06493 whole entry): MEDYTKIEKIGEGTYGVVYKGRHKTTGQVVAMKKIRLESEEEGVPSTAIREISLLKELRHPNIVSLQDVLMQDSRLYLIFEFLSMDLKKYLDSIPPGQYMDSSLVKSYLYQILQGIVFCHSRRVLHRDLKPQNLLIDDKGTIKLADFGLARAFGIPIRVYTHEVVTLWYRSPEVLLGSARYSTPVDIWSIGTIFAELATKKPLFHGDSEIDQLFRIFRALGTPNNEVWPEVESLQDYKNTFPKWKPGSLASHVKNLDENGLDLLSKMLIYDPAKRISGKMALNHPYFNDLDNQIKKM
Chain of CDK1/CCNB1 (P14635 whole entry partner): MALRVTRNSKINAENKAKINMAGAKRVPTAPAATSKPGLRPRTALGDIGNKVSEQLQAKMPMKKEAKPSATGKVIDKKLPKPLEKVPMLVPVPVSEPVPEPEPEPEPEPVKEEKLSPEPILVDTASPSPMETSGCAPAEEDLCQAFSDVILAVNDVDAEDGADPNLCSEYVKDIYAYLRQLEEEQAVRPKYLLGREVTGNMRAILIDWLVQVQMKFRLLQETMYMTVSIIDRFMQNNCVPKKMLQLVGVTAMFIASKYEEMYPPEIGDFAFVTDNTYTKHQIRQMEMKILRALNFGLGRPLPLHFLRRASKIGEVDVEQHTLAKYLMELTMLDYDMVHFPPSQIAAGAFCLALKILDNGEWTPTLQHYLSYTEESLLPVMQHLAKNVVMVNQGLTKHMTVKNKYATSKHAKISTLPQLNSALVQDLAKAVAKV
Chain of CDK6/CCND1 (Q00534 whole entry): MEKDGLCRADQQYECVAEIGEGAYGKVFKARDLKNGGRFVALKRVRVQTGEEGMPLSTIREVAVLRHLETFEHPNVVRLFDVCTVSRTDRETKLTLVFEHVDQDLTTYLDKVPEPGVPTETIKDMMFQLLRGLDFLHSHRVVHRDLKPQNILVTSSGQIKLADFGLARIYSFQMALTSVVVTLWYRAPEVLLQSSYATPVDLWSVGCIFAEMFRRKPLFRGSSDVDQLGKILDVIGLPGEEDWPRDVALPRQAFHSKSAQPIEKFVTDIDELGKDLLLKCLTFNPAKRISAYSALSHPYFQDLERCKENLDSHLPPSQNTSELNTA
Chain of CDK6/CCND1 (P24385 whole entry partner): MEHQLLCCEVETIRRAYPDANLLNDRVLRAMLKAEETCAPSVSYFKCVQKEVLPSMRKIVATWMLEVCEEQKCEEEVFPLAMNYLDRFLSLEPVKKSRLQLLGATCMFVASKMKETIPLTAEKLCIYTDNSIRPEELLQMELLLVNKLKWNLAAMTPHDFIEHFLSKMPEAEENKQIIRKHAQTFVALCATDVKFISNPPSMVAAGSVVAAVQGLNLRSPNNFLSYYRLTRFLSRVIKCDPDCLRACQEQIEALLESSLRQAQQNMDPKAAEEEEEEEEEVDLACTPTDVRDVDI

## Cc1c(-c2nccc3cnc(Nc4ccc(NS(=O)(=O)c5ccc(N6CCOCC6)nc5)cc4)cc23)ccc2c1cnn2CC(C)(C)O [Ex 780, N-(4-((5-(1-(2-hydroxy-2-methylpropyl)-4-methyl-1H-indazol-5-yl)-2,6-naphthyridin-3-yl)amino)phenyl)-6-morpholinopyridine-3-sulfonamide]
CDK6/CCND1; [1]
  pIC50: < 6.60
CDK2/CCNE1; [2]
  pIC50: 6.60 to 7.60
CDK1/CCNB1; [3]
  pIC50: < 6.60
CDK4/CCND3; [4]
  pIC50: < 6.60

## Cc1c(-c2nccc3cnc(Nc4ccc(NS(=O)(=O)c5cnccn5)cc4)cc23)ccc2c1cnn2CC(C)(C)O [Ex 781, N-(4-((5-(1-(2-hydroxy-2-methylpropyl)-4-methyl-1H-indazol-5-yl)-2,6-naphthyridin-3-yl)amino)phenyl)pyrazine-2-sulfonamide]
CDK6/CCND1; [5]
  pIC50: 6.60 to 7.60
CDK2/CCNE1; [6]
  pIC50: > 7.60
CDK1/CCNB1; [3]
  pIC50: < 6.60
CDK4/CCND3; [7]
  pIC50: 6.60 to 7.60

## Cc1nc(-c2ccc(S(=O)(=O)Nc3ccc(Nc4cc5c(-c6ccc7c(cnn7CC(C)(C)O)c6C)nccc5cn4)cc3)s2)cs1 [Ex 782, N-(4-((5-(1-(2-hydroxy-2-methylpropyl)-4-methyl-1H-indazol-5-yl)-2,6-naphthyridin-3-yl)amino)phenyl)-5-(2-methylthiazol-4-yl)thiophene-2-sulfonamide]
CDK6/CCND1; [1]
  pIC50: < 6.60
CDK2/CCNE1; >250 nM, read-out: CDK2/CCNE IC50, >250 nM
  pIC50: < 6.60
CDK1/CCNB1; [3]
  pIC50: < 6.60
CDK4/CCND3; [4]
  pIC50: < 6.60

## Cc1ncc(S(=O)(=O)Nc2ccc(Nc3cc4c(-c5ccc6c(cnn6CC(C)(C)O)c5C)nccc4cn3)cc2)s1 [Ex 783, N-(4-((5-(1-(2-hydroxy-2-methylpropyl)-4-methyl-1H-indazol-5-yl)-2,6-naphthyridin-3-yl)amino)phenyl)-2-methylthiazole-5-sulfonamide]
CDK6/CCND1; [1]
  pIC50: < 6.60
CDK2/CCNE1; [6]
  pIC50: > 7.60
CDK1/CCNB1; [3]
  pIC50: < 6.60
CDK4/CCND3; [4]
  pIC50: < 6.60

## Cc1c(-c2nccc3cnc(Nc4ccc(NS(=O)(=O)c5ccc(N6CCN(C)CC6)cc5)cc4)cc23)ccc2c1cnn2CC(C)(C)O [Ex 785, N-(4-((5-(1-(2-hydroxy-2-methylpropyl)-4-methyl-1H-indazol-5-yl)-2,6-naphthyridin-3-yl)amino)phenyl)-4-(4-methylpiperazin-1-yl)benzenesulfonamide]
CDK6/CCND1; [1]
  pIC50: < 6.60
CDK2/CCNE1; [6]
  pIC50: > 7.60
CDK1/CCNB1; [3]
  pIC50: < 6.60
CDK4/CCND3; [4]
  pIC50: < 6.60

## Cc1c(-c2nccc3cnc(Nc4ccc(NS(=O)(=O)c5ccc(N6CCOCC6)cc5)cc4)cc23)ccc2c1cnn2CC(C)(C)O [Ex 786, N-(4-((5-(1-(2-hydroxy-2-methylpropyl)-4-methyl-1H-indazol-5-yl)-2,6-naphthyridin-3-yl)amino)phenyl)-4-morpholinobenzenesulfonamide]
CDK6/CCND1; [1]
  pIC50: < 6.60
CDK2/CCNE1; [2]
  pIC50: 6.60 to 7.60
CDK1/CCNB1; [3]
  pIC50: < 6.60
CDK4/CCND3; [4]
  pIC50: < 6.60

## Cc1c(-c2nccc3cnc(Nc4ccc(NS(=O)(=O)c5ccccc5)cc4)cc23)ccc2c1cnn2CC(C)(C)O [Ex 787, N-(4-((5-(1-(2-hydroxy-2-methylpropyl)-4-methyl-1H-indazol-5-yl)-2,6-naphthyridin-3-yl)amino)phenyl)benzenesulfonamide]
CDK6/CCND1; [1]
  pIC50: < 6.60
CDK2/CCNE1; [6]
  pIC50: > 7.60
CDK1/CCNB1; [3]
  pIC50: < 6.60
CDK4/CCND3; [4]
  pIC50: < 6.60

## Cc1c(-c2nccc3cnc(Nc4ccc(S(=O)(=O)NC5CCOCC5)cc4)cc23)ccc2c1cnn2CC(C)(C)O [Ex 793, 4-((5-(1-(2-hydroxy-2-methylpropyl)-4-methyl-1H-indazol-5-yl)-2,6-naphthyridin-3-yl)amino)-N-(tetrahydro-2H-pyran-4-yl)benzenesulfonamide]
CDK6/CCND1; [5]
  pIC50: 6.60 to 7.60
CDK2/CCNE1; [6]
  pIC50: > 7.60
CDK1/CCNB1; [3]
  pIC50: < 6.60
CDK4/CCND3; [7]
  pIC50: 6.60 to 7.60

## Cc1c(-c2nccc3cnc(Nc4ccc(S(=O)(=O)NC5CC5)cc4)cc23)ccc2c1cnn2CC(C)(C)O [Ex 794, N-cyclopropyl-4-((5-(1-(2-hydroxy-2-methylpropyl)-4-methyl-1H-indazol-5-yl)-2,6-naphthyridin-3-yl)amino)benzenesulfonamide]
CDK6/CCND1; [5]
  pIC50: 6.60 to 7.60
CDK2/CCNE1; [6]
  pIC50: > 7.60
CDK1/CCNB1; [3]
  pIC50: < 6.60
CDK4/CCND3; [7]
  pIC50: 6.60 to 7.60

## CCNS(=O)(=O)c1ccc(Nc2cc3c(-c4ccc5c(cnn5CC(C)(C)O)c4C)nccc3cn2)cc1 [Ex 795, N-ethyl-4-((5-(1-(2-hydroxy-2-methylpropyl)-4-methyl-1H-indazol-5-yl)-2,6-naphthyridin-3-yl)amino)benzenesulfonamide]
CDK6/CCND1; [5]
  pIC50: 6.60 to 7.60
CDK2/CCNE1; [6]
  pIC50: > 7.60
CDK1/CCNB1; [3]
  pIC50: < 6.60
CDK4/CCND3; [7]
  pIC50: 6.60 to 7.60

## CNS(=O)(=O)c1ccc(Nc2cc3c(-c4ccc5c(cnn5CC(C)(C)O)c4C)nccc3cn2)cc1 [Ex 796, 4-((5-(1-(2-hydroxy-2-methylpropyl)-4-methyl-1H-indazol-5-yl)-2,6-naphthyridin-3-yl)amino)-N-methylbenzenesulfonamide]
CDK6/CCND1; [5]
  pIC50: 6.60 to 7.60
CDK2/CCNE1; [6]
  pIC50: > 7.60
CDK1/CCNB1; [8]
  pIC50: 6.60 to 7.60
CDK4/CCND3; [7]
  pIC50: 6.60 to 7.60

## Cc1c(-c2nccc3cnc(Nc4ccc(S(=O)(=O)Nc5ccncn5)cc4)cc23)ccc2c1cnn2CC(C)(C)O [Ex 797, 4-((5-(1-(2-hydroxy-2-methylpropyl)-4-methyl-1H-indazol-5-yl)-2,6-naphthyridin-3-yl)amino)-N-(pyrimidin-4-yl)benzenesulfonamide]
CDK6/CCND1; [1]
  pIC50: < 6.60
CDK2/CCNE1; [2]
  pIC50: 6.60 to 7.60
CDK1/CCNB1; [3]
  pIC50: < 6.60
CDK4/CCND3; [4]
  pIC50: < 6.60

## COc1ccc(NS(=O)(=O)c2ccc(Nc3cc4c(-c5ccc6c(cnn6CC(C)(C)O)c5C)nccc4cn3)cc2)nn1 [Ex 798, 4-((5-(1-(2-hydroxy-2-methylpropyl)-4-methyl-1H-indazol-5-yl)-2,6-naphthyridin-3-yl)amino)-N-(6-methoxypyridazin-3-yl)benzenesulfonamide]
CDK6/CCND1; [5]
  pIC50: 6.60 to 7.60
CDK2/CCNE1; [6]
  pIC50: > 7.60
CDK1/CCNB1; [3]
  pIC50: < 6.60
CDK4/CCND3; [7]
  pIC50: 6.60 to 7.60

## Cc1c(-c2nccc3cnc(Nc4ccc(S(=O)(=O)Nc5ccc(C(F)(F)F)nn5)cc4)cc23)ccc2c1cnn2CC(C)(C)O [Ex 799, 4-((5-(1-(2-hydroxy-2-methylpropyl)-4-methyl-1H-indazol-5-yl)-2,6-naphthyridin-3-yl)amino)-N-(6-(trifluoromethyl)pyridazin-3-yl)benzenesulfonamide]
CDK6/CCND1; [1]
  pIC50: < 6.60
CDK2/CCNE1; [6]
  pIC50: > 7.60
CDK1/CCNB1; [3]
  pIC50: < 6.60
CDK4/CCND3; [4]
  pIC50: < 6.60

## Cc1ccc(NS(=O)(=O)c2ccc(Nc3cc4c(-c5ccc6c(cnn6CC(C)(C)O)c5C)nccc4cn3)cc2)nn1 [Ex 800, 4-((5-(1-(2-hydroxy-2-methylpropyl)-4-methyl-1H-indazol-5-yl)-2,6-naphthyridin-3-yl)amino)-N-(6-methylpyridazin-3-yl)benzenesulfonamide]
CDK6/CCND1; [5]
  pIC50: 6.60 to 7.60
CDK2/CCNE1; [6]
  pIC50: > 7.60
CDK1/CCNB1; [8]
  pIC50: 6.60 to 7.60
CDK4/CCND3; [7]
  pIC50: 6.60 to 7.60

## Cc1c(-c2nccc3cnc(Nc4ccc(S(=O)(=O)Nc5cccc(C(C)(C)O)c5)cc4)cc23)ccc2c1cnn2CC(C)(C)O [Ex 802, 4-((5-(1-(2-hydroxy-2-methylpropyl)-4-methyl-1H-indazol-5-yl)-2,6-naphthyridin-3-yl)amino)-N-(3-(2-hydroxypropan-2-yl)phenyl)benzenesulfonamide]
CDK6/CCND1; [1]
  pIC50: < 6.60
CDK2/CCNE1; [6]
  pIC50: > 7.60
CDK1/CCNB1; [3]
  pIC50: < 6.60
CDK4/CCND3; [4]
  pIC50: < 6.60

## Cc1c(-c2nccc3cnc(Nc4ccc(S(=O)(=O)Nc5cccc(N6CCOCC6)c5)cc4)cc23)ccc2c1cnn2CC(C)(C)O [Ex 803, 4-((5-(1-(2-hydroxy-2-methylpropyl)-4-methyl-1H-indazol-5-yl)-2,6-naphthyridin-3-yl)amino)-N-(3-morpholinophenyl)benzenesulfonamide]
CDK6/CCND1; [1]
  pIC50: < 6.60
CDK2/CCNE1; [6]
  pIC50: > 7.60
CDK1/CCNB1; [3]
  pIC50: < 6.60
CDK4/CCND3; [4]
  pIC50: < 6.60

## COc1cccc(NS(=O)(=O)c2ccc(Nc3cc4c(-c5ccc6c(cnn6CC(C)(C)O)c5C)nccc4cn3)cc2)c1 [Ex 804, 4-((5-(1-(2-hydroxy-2-methylpropyl)-4-methyl-1H-indazol-5-yl)-2,6-naphthyridin-3-yl)amino)-N-(3-methoxyphenyl)benzenesulfonamide]
CDK6/CCND1; [1]
  pIC50: < 6.60
CDK2/CCNE1; [6]
  pIC50: > 7.60
CDK1/CCNB1; [3]
  pIC50: < 6.60
CDK4/CCND3; [4]
  pIC50: < 6.60

## COc1cc(NS(=O)(=O)c2ccc(Nc3cc4c(-c5ccc6c(cnn6CC(C)(C)O)c5C)nccc4cn3)cc2)cc(OC)c1 [Ex 805, N-(3,5-dimethoxyphenyl)-4-((5-(1-(2-hydroxy-2-methylpropyl)-4-methyl-1H-indazol-5-yl)-2,6-naphthyridin-3-yl)amino)benzenesulfonamide]
CDK6/CCND1; [1]
  pIC50: < 6.60
CDK2/CCNE1; [6]
  pIC50: > 7.60
CDK1/CCNB1; [3]
  pIC50: < 6.60
CDK4/CCND3; [4]
  pIC50: < 6.60
